Data as given in patent US20210038579A1, “Treatment Of Patients With Classic Fabry Disease” (Amicus Therapeutics, Inc., priority 2018, published 2021).

Key:
[1] = test system: α-Gal A mutant forms; test: HEK assay: means over groups of GLA mutations found in enrolled patients; assay type: cell-based, human; conditions: 10 μM of migalastat
Experimental: Such mutations are also referred to herein as “HEK assay amenable” mutations.
In this assay, cDNA constructs are created. The corresponding α-Gal A mutant forms are transiently expressed in HEK-293 cells. Cells are then incubated±migalastat (17 nM to 1 mM) for 4 to 5 days. After, α-Gal A levels are measured in cell lysates using a synthetic fluorogenic substrate (4-MU-α-Gal) or by western blot. This has been done for known disease-causing missense or small in-frame insertion/deletion mutations.

[2] = Phase 3 study, ERT-naïve Fabry patients: echocardiography (LVMi); assay type: in vivo, human; conditions: for mean (SD) change in LVMi: baseline (or month 6) to month 24; for LVMi change: after 24 months of treatment
Experimental: Patient Enrollment. […] Study Design. […] Echocardiography. LVMi, left posterior wall thickness, diastolic, interventricular septum thickness, diastolic and other parameters were assessed through blinded, centralized evaluation. For all outcomes except GL-3 inclusions per kidney interstitial capillary, data are pooled for patients within phenotype subgroups regardless of treatment allocation for the first six months (migalastat or placebo).

[3] = GLA mutations of enrolled patients reported as associated with the classic phenotype in the literature

Structure (SMILES): OC[C@H]1NC[C@H](O)[C@@H](O)[C@H]1O [migalastat]
- mean absolute increase in α-Gal A activity [1, 3]: 24.8 % of WT
- mean activity increase over baseline [1, 3]: 8.2 fold over baseline
- mean absolute increase in α-Gal A activity ([1]; all other mutations): 24.5 % of WT
- mean activity increase over baseline ([1]; all other mutations): 6.8 fold over baseline
- classic male patients with data reporting a reduction in LVMi ([2]; classic male patients, age range 16-61 years): 7/8
- mean (SD) change in LVMi ([2]; classic males): −16.7 (18.64) g/m^2
- mean (SD) change in LVMi ([2]; other patients): −3.2 (18.66) g/m^2
- LVMi change ([2]; overall migalastat-treated population): −7.7 g/m^2
- LVMi change ([2]; patients with LVH): −18.6 g/m^2
